Key:
Assay type in all cases: biochemical
Cathepsin S = Cathepsin S (Homo sapiens, UniProt P25774); experiment: Cathepsin S inhibition, fluorogenic peptide substrate kinetic assay; conditions: Cathepsin S inhibition constant; read-out: Ki Cat. S
Protocol: (§1) The optimal substrate for cathepsin S, acetyl-histidine-proline-valine-lysine-amino carbamoyl coumarin, was identified from screening a combinatorial library of fluorogenic peptide substrates (Harris, J. L., B. J. Backes, et al. Proc Natl Acad Sci USA 2000, 97(14), 7754-9). Kinetic measurements are performed in a total reaction volume of 30 μl in 384-well microtiter plates. […] Control reactions in the absence of inhibitor are performed in replicates of 24. The reactions are initiated by adding the substrate, acetyl-histidine-proline-valine-lysine-amino carbamoyl coumarin, to a final concentration of 50 μM. The rate of substrate hydrolysis is measured by monitoring the increase in fluorescence at an excitation wavelength of 380 nm and an emission wavelength of 450 nm that results from cleavage of the aniline bond in the substrate by the enzyme. The apparent inhibition constants for the compounds are determined from the enzyme progress curves (Kuzmic, P., K. C. Elrod, et al. Anal Biochem 2000, 286(1), 45-50) and are then used to calculate the inhibition constants for competitive inhibitors.

Cathepsin B = Cathepsin B (Homo sapiens, UniProt P07858); experiment: Cathepsin B inhibition, fluorogenic peptide substrate kinetic assay (selectivity ratio vs cathepsin S); conditions: ratio of cathepsin B inhibition constant to cathepsin S inhibition constant
Protocol: (§2) Kinetic measurements are performed in a total reaction volume of 30 μl in 384-well microtiter plates. […] Control reactions in the absence of inhibitor are performed in replicates of 24. The reactions are initiated by adding the substrate, acetyl-histidine-proline-valine-lysine-amino carbamoyl coumarin, to a final concentration of 10 μM. The rate of substrate hydrolysis is measured by monitoring the increase in fluorescence at an excitation wavelength of 380 nm and an emission wavelength of 450 nm that results from cleavage of the aniline bond in the substrate by the enzyme. The apparent inhibition constants for the compounds are determined from the enzyme progress curves ([…]. Elrod, et al. Anal Biochem 2000, 286(1), 45-50) and are then used to calculate the inhibition constants for competitive inhibitors. Selectivity for cathepsin S in the presence of cathepsin isozymes was determined by the ratio of the cathepsin isozyme inhibition constant of a compound of the present invention to the cathepsin S inhibition constant of the same compound.

Cathepsin L = Cathepsin L (Homo sapiens, UniProt P07711); experiment: Cathepsin L inhibition, fluorogenic peptide substrate kinetic assay (selectivity ratio vs cathepsin S); conditions: ratio of cathepsin L inhibition constant to cathepsin S inhibition constant
Chain of Cathepsin L (P07711 114-333, species assumed): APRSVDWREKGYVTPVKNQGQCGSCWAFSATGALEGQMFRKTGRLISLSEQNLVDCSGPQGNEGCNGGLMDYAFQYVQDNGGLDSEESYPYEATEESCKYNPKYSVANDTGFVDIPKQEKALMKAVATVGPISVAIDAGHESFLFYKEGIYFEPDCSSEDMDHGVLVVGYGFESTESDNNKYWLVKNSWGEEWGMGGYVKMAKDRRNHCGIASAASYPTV
Protocol: as §1, with “cathepsin L, acetyl-histidine-lysine-phenylalanine-lysine-amino” for “cathepsin S, acetyl-histidine-proline-valine-lysine-amino”, “substrate, acetyl-histidine-lysine-phenylalanine-lysine-amino” for “substrate, acetyl-histidine-proline-valine-lysine-amino”, “of 20” for “of 50”, “curves ([…].” for “curves (Kuzmic, P., K. C.”, “inhibitors. Selectivity for cathepsin S in the presence of cathepsin isozymes was determined by the ratio of the cathepsin isozyme inhibition constant of a compound of the present invention to the cathepsin S inhibition constant of the same compound.” for “inhibitors.”

Cathepsin K = target: T1, Cathepsin K (Homo sapiens, UniProt P43235); experiment: Cathepsin K inhibition, fluorogenic peptide substrate kinetic assay (selectivity ratio vs cathepsin S); conditions: ratio of cathepsin K inhibition constant to cathepsin S inhibition constant
T1 sequence (P43235 115-329): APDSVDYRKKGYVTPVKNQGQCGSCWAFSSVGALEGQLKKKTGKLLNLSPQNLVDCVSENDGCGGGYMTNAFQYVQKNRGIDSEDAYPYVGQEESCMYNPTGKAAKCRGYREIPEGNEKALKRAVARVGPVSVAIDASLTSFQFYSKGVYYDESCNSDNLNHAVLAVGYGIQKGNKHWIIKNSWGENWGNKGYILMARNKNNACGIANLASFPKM
Protocol: as §2, with “acetyl-lysine-histidine-proline-lysine-amino” for “acetyl-histidine-proline-valine-lysine-amino”, “40” for “10”

Chain of Cathepsin S (P25774 115-331, species assumed): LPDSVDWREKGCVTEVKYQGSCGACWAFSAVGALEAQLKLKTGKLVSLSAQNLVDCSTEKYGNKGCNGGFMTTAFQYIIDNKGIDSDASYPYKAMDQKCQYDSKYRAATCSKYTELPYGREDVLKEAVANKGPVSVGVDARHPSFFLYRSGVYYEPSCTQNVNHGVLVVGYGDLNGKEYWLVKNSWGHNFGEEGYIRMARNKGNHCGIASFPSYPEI

Compound | Ki (Cathepsin S) | Selectivity for Cat. S over Cat. B (Cathepsin B) | Selectivity for Cat. S over Cat. L (Cathepsin L) | Selectivity for Cat. S over Cat. K (Cathepsin K)
3-(S)-[2-(S)-(6-Chloro-benzooxazol-2-ylamino)-3-cyclohexyl-propionylamino]-4-(5-fluoro-2,3-dihydro-indol-1-yl)-butyric acid tert-butyl ester [Example 28] | < 1000 nM | ++ (++, >100) | ++ (++, >100) | ++ (++, >100)
CC(C)(C)C[C@H](Nc1nc2ccccc2o1)C(=O)N[C@@H](CC(=O)OC(C)(C)C)CN1CCc2cc(F)ccc21 [Example 3, 3-(S)-[2-(S)-(Benzooxazol-2-ylamino)-4,4-dimethyl-pentanoylamino]-4-(5-fluoro-2,3-dihydro-indol-1-yl)-butyric acid tert-butyl ester] | < 1000 nM | ++ (++, >100) | ++ (++, >100) | ++ (++, >100)
CC(C)(C)C[C@H](Nc1nc2ccccc2o1)C(=O)N[C@@H](CC(=O)O)CN1CCc2cc(F)ccc21 [Example 4, 3-(S)-[2-(S)-(Benzooxazol-2-ylamino)-4,4-dimethyl-pentanoylamino]-4-(5-fluoro-2,3-dihydro-indol-1-yl)-butyric acid] | < 100 nM | +++ (+++, >1000) | +++ (+++, >1000) | ++ (++, >100)
CC(C)(C)C[C@H](Nc1nc2ccccc2o1)C(=O)N[C@@H](CCS(C)(=O)=O)CN1CCc2cc(F)ccc21 [Example 5, 2-(S)-(Benzooxazol-2-ylamino)-4,4-dimethyl-pentanoic acid [1-(S)-(5-fluoro-2,3-dihydro-indol-1-ylmethyl)-3-methanesulfonyl-propyl]-amide] | < 100 nM | +++ (+++, >1000) | +++ (+++, >1000) | + (+, >10)
CC(C)(C)C[C@H](Nc1nc2ccccc2o1)C(=O)N[C@@H](COCc1ccccc1)CN1CCc2cc(F)ccc21 [Example 6, 2-(S)-(Benzooxazol-2-ylamino)-4,4-dimethyl-pentanoic acid (R)-[1-benzyloxymethyl-2-(5-fluoro-2,3-dihydro-indol-1-yl)-ethyl]-amide] | < 100 nM | +++ (+++, >1000) | +++ (+++, >1000) | + (+, >10)
CC(C)(C)C[C@H](Nc1nc2ccccc2o1)C(=O)N[C@@H](CO)CN1CCc2cc(F)ccc21 [Example 7, 2-(S)-(Benzooxazol-2-ylamino)-4,4-dimethyl-pentanoic acid [2-(5-fluoro-2,3-dihydro-indol-1-yl)-1-(R)-hydroxymethyl-ethyl]-amide] | < 100 nM | +++ (+++, >1000) | +++ (+++, >1000) | + (+, >10)
CC(C)(C)OC(=O)C[C@@H](CN1CCc2cc(F)ccc21)NC(=O)[C@H](CC1CCCCC1)Nc1nc2ccccc2o1 [Example 9, 3-(S)-[2-(S)-(Benzooxazol-2-ylamino)-3-cyclohexyl-propionylamino]-4-(5-fluoro-2,3-dihydro-indol-1-yl)-butyric acid tert-butyl ester] | < 100 nM | +++ (+++, >1000) | ++ (++, >100) | ++ (++, >100)
CC(C)(C)C[C@H](Nc1nccc2ccccc12)C(=O)NCCN1CCc2cc(F)ccc21 [Example 19, 2-(S)-(Isoquinolin-1-ylamino)-4,4-dimethyl-pentanoic acid [2-(5-fluoro-2,3-dihydro-indol-1-yl)-ethyl]-amide] | < 100 nM | +++ (+++, >1000) | + (+, >10) | 
Cc1sc(N[C@@H](CC2CCCCC2)C(=O)NCCN2CCc3cc(F)ccc32)nc1-c1ccccc1 [Example 20, (S)-3-Cyclohexyl-N-[2-(5-fluoro-2,3-dihydro-indol-1-yl)-ethyl]-2-(5-methyl-4-phenyl-thiazol-2-ylamino)-propionamide] | < 10000 nM | + (+, >10) |  | + (+, >10)

Next, values leading:

Ki (Cathepsin S) | Selectivity for Cat. S over Cat. B (Cathepsin B) | Selectivity for Cat. S over Cat. L (Cathepsin L) | Selectivity for Cat. S over Cat. K (Cathepsin K) | Compound
< 100 nM |  |  |  | COC(=O)c1ccc2nc(N[C@@H](CC3CCCCC3)C(=O)N[C@@H](C)CNc3ccc(F)cc3)oc2c1 [Example 24, (S,S)2-{2-Cyclohexyl-1-[2-(4-fluoro-phenylamino)-1-methyl-ethylcarbamoyl]-ethylamino}-benzooxazole-6-carboxylic acid methyl ester]
< 10000 nM |  |  |  | Cc1cc(NC[C@H](C)NC(=O)[C@H](CC2CCCCC2)Nc2nc3cccc(Cl)c3o2)no1 [Example 25, 2-(S)-(7-Chloro-benzooxazol-2-ylamino)-3-cyclohexyl-N-[1-(S)-methyl-2-(5-methyl-isoxazol-3-ylamino)-ethyl]-propionamide]
< 100 nM |  |  |  | O=C(O)C[C@@H](CN1CCc2cc(F)ccc21)NC(=O)[C@H](CC1CCCCC1)Nc1nc2ccc(Cl)cc2s1 [Example 29, 3-(S)-[2-(S)-(6-Chloro-benzothiazol-2-ylamino)-3-cyclohexyl-propionylamino]-4-(5-fluoro-2,3-dihydro-indol-1-yl)-butyric acid]
< 100 nM |  |  |  | C[C@@H](CN1CCc2cc(F)ccc21)NC(=O)[C@H](CC1CCCCC1)Nc1nc2ccc(Cl)cc2s1 [Example 34, 2-(S)-(6-Chloro-benzothiazol-2-ylamino)-3-cyclohexyl-N-[2-(5-fluoro-2,3-dihydro-indol-1-yl)-1-(S)-methyl-ethyl]-propionamide]
< 100 nM |  |  |  | C[C@@H](CNc1ccc(OC(F)(F)F)cc1)NC(=O)[C@H](CC1CCCC1)Nc1nc2cccc(Cl)c2o1 [Example 39, 2-(S)-(7-Chloro-benzooxazol-2-ylamino)-3-cyclopentyl-N-[1-(S)-methyl-2-(4-trifluoromethoxy-phenylamino)-ethyl]-propionamide]
< 100 nM |  |  |  | C[C@@H](CNc1ccc(OC(F)(F)F)cc1)NC(=O)[C@H](CC(C)(C)C)Nc1nc2cccc(Cl)c2o1 [Example 41, 2-(S)-(7-Chloro-benzooxazol-2-ylamino)-4,4-dimethyl-pentanoic acid [1-(S)-methyl-2-(4-trifluoromethoxy-phenylamino)-ethyl]-amide]
< 100 nM |  |  |  | C[C@@H](CNc1ccc(OC(F)(F)F)cc1)NC(=O)[C@H](CC1CC1)Nc1nc2cccc(Cl)c2o1 [Example 43, 2-(S)-(7-Chloro-benzooxazol-2-ylamino)-3-cyclopropyl-N-[1-(S)-methyl-2-(4-trifluoromethoxy-phenylamino)-ethyl]-propionamide]

Reference: US7307095B2, “Inhibitors of cathepsin S” (IRM LLC, priority 2003, dated 2007)
